Reference: patent US7858635B2 (priority 2005, dated 2010)
Like-named read-outs stand apart in the source and are kept apart here.

Assays:
M4 muscarinic receptor = target: T1, M4 muscarinic receptor (Homo sapiens, UniProt P08173); test: Functional mobilization of intracellular calcium (FLIPR, Fluo-3), M4-CHO cells; format: cell-based; conditions: for Emax: 100% efficacy is the maximum response obtained with the Carbachol control, read-out: M4 Efficacy
T1 construct: expressed in transfected cells; host or cells: CHO cells (M4-CHO, under puromycin, zeocin and blasticidin selection)
T1 sequence (P08173 1-479): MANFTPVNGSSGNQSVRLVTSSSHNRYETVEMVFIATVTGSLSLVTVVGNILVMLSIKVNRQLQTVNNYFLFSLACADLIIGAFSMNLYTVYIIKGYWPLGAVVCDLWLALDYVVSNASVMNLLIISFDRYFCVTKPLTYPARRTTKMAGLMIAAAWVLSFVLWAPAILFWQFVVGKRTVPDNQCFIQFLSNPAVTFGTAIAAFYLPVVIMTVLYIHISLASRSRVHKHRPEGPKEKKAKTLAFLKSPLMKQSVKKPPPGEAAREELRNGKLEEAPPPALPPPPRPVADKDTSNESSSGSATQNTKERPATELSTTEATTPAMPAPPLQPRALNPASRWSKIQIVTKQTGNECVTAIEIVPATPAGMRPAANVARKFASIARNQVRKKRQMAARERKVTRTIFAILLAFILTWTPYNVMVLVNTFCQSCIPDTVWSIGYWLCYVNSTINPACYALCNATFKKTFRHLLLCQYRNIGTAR
Procedure, shortened: (§1)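 Intracellular calcium was tracked by fluorescence (488/540 nm) over 60 sec after compound addition to dye-loaded CHO cells expressing the receptor. Inhibitory activity used a 15 min pre-incubation before carbachol at the subtype EC80.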

M1 muscarinic receptor = target: T2, M1 muscarinic receptor (Homo sapiens, UniProt P11229); test: Functional mobilization of intracellular calcium (FLIPR, Fluo-3), M1-CHO cells; format: cell-based; conditions: for Emax: 100% efficacy is the maximum response obtained with the Carbachol control, read-out: M1 Efficacy
T2 construct: expressed in transfected cells; host or cells: CHO cells (M1-CHO, under zeocin and G418 selection)
T2 sequence (P11229 1-460): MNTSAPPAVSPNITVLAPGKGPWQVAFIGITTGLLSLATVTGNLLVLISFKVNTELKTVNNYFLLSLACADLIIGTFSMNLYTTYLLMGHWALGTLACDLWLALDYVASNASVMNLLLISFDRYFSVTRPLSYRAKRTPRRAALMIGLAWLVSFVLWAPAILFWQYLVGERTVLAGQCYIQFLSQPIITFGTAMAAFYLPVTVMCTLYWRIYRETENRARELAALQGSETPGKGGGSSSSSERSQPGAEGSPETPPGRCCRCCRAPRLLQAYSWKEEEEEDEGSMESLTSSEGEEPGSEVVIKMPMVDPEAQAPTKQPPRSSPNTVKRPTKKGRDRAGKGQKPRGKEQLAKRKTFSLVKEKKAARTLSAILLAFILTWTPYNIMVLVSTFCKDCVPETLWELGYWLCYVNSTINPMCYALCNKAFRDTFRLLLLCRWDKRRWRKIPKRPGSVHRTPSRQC
Procedure, shortened: as §1

[1] = compound nos. 1-454, M4-CHO cells, calcium mobilization
[2] = compound nos. 1-454, M1-CHO cells, calcium mobilization

| SMILES | Emax (M4 muscarinic receptor; compound nos. 1-454) | M4 Activity (M4 muscarinic receptor; [1]) | Emax (M1 muscarinic receptor; compound nos. 1-454) | M1 Activity (M1 muscarinic receptor; [2]) | M4 Activity (M4 muscarinic receptor; compound nos. 1-454) | M1 Activity (M1 muscarinic receptor; compound nos. 1-454) | Emax (M4 muscarinic receptor; compound nos. 455-509) | M4 Activity (M4 muscarinic receptor; compounds 455-509) | Emax (M1 muscarinic receptor; compound nos. 455-509) | M1 Activity (M1 muscarinic receptor; compounds 455-509) |
| --- | --- | --- | --- | --- | --- | --- | --- | --- | --- | --- |
| CS(=O)(=O)N[C@H]1CC2(CCN(C[C@H]3C[C@H]4C=C[C@H]3C4)CC2)c2ccccc21 [compound 70] | 55 to 70% | + (activity was measured to be greater than or equal to 4.0 μM) | 65 to 85% | ++ (activity was measured to be between 0.7 μM and 3.0 μM) | – | – | – | – | – | – |
| CCOC(=O)N1CCC(N2CCC3(CC2)CN(C(=O)c2cccnc2)c2ccc(F)cc23)CC1 [compound 144] | > 70% | +++ (activity was measured to be less than or equal to 0.1 μM) | > 85% | +++ (activity was measured to be less than or equal to 0.7 μM) | – | – | – | – | – | – |
| Fc1ccc2c(c1)C1(CCN(C3CCOCC3)CC1)CN2 [compound 299] | 55 to 70% | + (activity was measured to be greater than or equal to 4.0 μM) | 65 to 85% | + (activity was measured to be greater than or equal to 3.0 μM) | – | – | – | – | – | – |
| O=C(OC1CCC1)N1C2CCC1CC(N1CCC3(CCc4ccccc43)CC1)C2 (stereo not shown) [compound 68] | < 55% | + (activity was measured to be greater than or equal to 4.0 μM) | < 65% | ++ (activity was measured to be between 0.7 μM and 3.0 μM) | – | – | – | – | – | – |
| CC(=O)N(C)[C@H]1CC2(CCN(C[C@H]3C[C@H]4CC[C@H]3C4)CC2)c2ccccc21 [compound 339] | < 55% | + (activity was measured to be greater than or equal to 4.0 μM) | < 65% | + (activity was measured to be greater than or equal to 3.0 μM) | – | – | – | – | – | – |
| CC(C)COC(=O)N1C2CCC1CC(N1CCC3(CC1)COc1ccc(F)cc13)C2 (stereo not shown) [compound 160] | > 70% | ++ (activity was measured to be between 0.1 μM and 4.0 μM) | > 85% | +++ (activity was measured to be less than or equal to 0.7 μM) | – | – | – | – | – | – |
| COCCOC(=O)N1C2CCC1CC(N1CCC3(CCc4ccccc43)CC1)C2 (stereo not shown) [compound 95] | < 55% | ++ (activity was measured to be between 0.1 μM and 4.0 μM) | 65 to 85% | +++ (activity was measured to be less than or equal to 0.7 μM) | – | – | – | – | – | – |
| CC(=O)N1CC2(CCN(C3CCN(C(=O)OC4CCC4)CC3)CC2)c2cc(F)ccc21 [compound 140] | > 70% | +++ (activity was measured to be less than or equal to 0.1 μM) | > 85% | +++ (activity was measured to be less than or equal to 0.7 μM) | – | – | – | – | – | – |
| CCOC(=O)N1CCC(N2CCC3(CC2)CN(C(C)=O)c2ccc(-c4ccc(NC(C)=O)cc4)cc23)CC1 [compound 10] | 55 to 70% | ++ (activity was measured to be between 0.1 μM and 4.0 μM) | 65 to 85% | ++ (activity was measured to be between 0.7 μM and 3.0 μM) | – | – | – | – | – | – |
| COCCOC(=O)N1CCC(N2CCC3(CC2)CN(C(C)=O)c2ccc(C)cc23)CC1 [compound 293] | > 70% | +++ (activity was measured to be less than or equal to 0.1 μM) | > 85% | ++ (activity was measured to be between 0.7 μM and 3.0 μM) | – | – | – | – | – | – |
| CC(=O)N1CC2(CCN(CC3=CCCCC3)CC2)c2cc(F)ccc21 [compound 163] | > 70% | ++ (activity was measured to be between 0.1 μM and 4.0 μM) | 65 to 85% | +++ (activity was measured to be less than or equal to 0.7 μM) | – | – | – | – | – | – |
| CCOC(=O)N1CCC(CN2CCC3(CC2)COc2ccc(F)cc23)CC1 [compound 107] | < 55% | + (activity was measured to be greater than or equal to 4.0 μM) | 65 to 85% | +++ (activity was measured to be less than or equal to 0.7 μM) | – | – | – | – | – | – |
| CC(=O)N1CC2(CCN(CC3CCCCC3)CC2)c2cc(F)ccc21 [compound 393] | < 55% | – | 65 to 85% | – | + (activity was measured to be greater than or equal to 4.0 μM) | +++ (activity was measured to be less than or equal to 0.7 μM) | – | – | – | – |
| Cc1csc(N2CCC(N3CCC4(CC3)CN(C(=O)N(C)C)c3ccccc34)CC2)n1 [compound 499] | – | – | – | – | – | – | 25 to 100% | ++ (activity was measured to be between 2.0 μM and 5.0 μM) | > 100% | + (activity was measured to be greater than or equal to 5.0 μM) |
| CCOC(=O)N1CCC(N2CCC3(CC2)CN(C(=O)c2ccc(C)cc2)c2ccc(F)cc23)CC1 [compound 330] | < 55% | + (activity was measured to be greater than or equal to 4.0 μM) | < 65% | + (activity was measured to be greater than or equal to 3.0 μM) | – | – | – | – | – | – |
| CCOC(=O)N1CCC(CN2CCC3(CC2)CN(C(C)=O)c2c(F)cccc23)CC1 [compound 307] | < 55% | + (activity was measured to be greater than or equal to 4.0 μM) | 65 to 85% | ++ (activity was measured to be between 0.7 μM and 3.0 μM) | – | – | – | – | – | – |
| CC(=O)N[C@H]1CC2(CCN(C3CCC(C)CC3)CC2)c2ccccc21 (stereo partly shown) [compound 280] | 55 to 70% | + (activity was measured to be greater than or equal to 4.0 μM) | 65 to 85% | + (activity was measured to be greater than or equal to 3.0 μM) | – | – | – | – | – | – |
| CC(=O)N1CCC2(CCN(C3CCN(c4cnccn4)CC3)CC2)c2ccccc21 [compound 463] | – | – | – | – | – | – | 25 to 100% | ++ (activity was measured to be between 2.0 μM and 5.0 μM) | > 100% | +++ (activity was measured to be less than or equal to 2.0 μM) |
| CCOC(=O)N1CCC(N2CCC3(CC2)CN(C(=O)c2ccccc2)c2ccc(F)cc23)CC1 [compound 384] | < 55% | – | < 65% | – | + (activity was measured to be greater than or equal to 4.0 μM) | ++ (activity was measured to be between 0.7 μM and 3.0 μM) | – | – | – | – |
| CCOC(=O)N[C@@H]1CC2(CCN(C[C@H]3C[C@H]4CC[C@H]3C4)CC2)c2ccccc21 [compound 275] | > 70% | ++ (activity was measured to be between 0.1 μM and 4.0 μM) | 65 to 85% | +++ (activity was measured to be less than or equal to 0.7 μM) | – | – | – | – | – | – |
| C#CCCOC(=O)N1C2CCC1CC(N1CCC3(CC1)CN(C(=O)N(C)C)c1ccc(F)cc13)C2 (stereo not shown) [compound 230] | > 70% | ++ (activity was measured to be between 0.1 μM and 4.0 μM) | < 65% | + (activity was measured to be greater than or equal to 3.0 μM) | – | – | – | – | – | – |
| CCOC(=O)N1CCC(N2CCC3(CC2)CN(C(C)=O)c2ccc(-c4cccc(F)c4)cc23)CC1 [compound 84] | 55 to 70% | ++ (activity was measured to be between 0.1 μM and 4.0 μM) | 65 to 85% | +++ (activity was measured to be less than or equal to 0.7 μM) | – | – | – | – | – | – |
| CCCC1CCC(N2CCC3(CC2)CNc2ccccc23)CC1 (stereo not shown) [compound 334] | < 55% | + (activity was measured to be greater than or equal to 4.0 μM) | < 65% | + (activity was measured to be greater than or equal to 3.0 μM) | – | – | – | – | – | – |
| CCOC(=O)N1CCC(N2CCC3(CC2)CN(C(C)=O)c2ccc(-c4ccccc4OC)cc23)CC1 [compound 150] | > 70% | + (activity was measured to be greater than or equal to 4.0 μM) | 65 to 85% | +++ (activity was measured to be less than or equal to 0.7 μM) | – | – | – | – | – | – |
| CC(C)OC(=O)N1CCC(N2CCC3(CC2)CN(C(=O)N(C)C)c2ccc(F)cc23)CC1 [compound 54] | 55 to 70% | ++ (activity was measured to be between 0.1 μM and 4.0 μM) | > 85% | +++ (activity was measured to be less than or equal to 0.7 μM) | – | – | – | – | – | – |
